Results as given in PubChem BioAssay (NCI).
“And” between values parts separate entries of the source, which are not always exact repeats. Equal entries are not always repeated.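 Dose response: 5 concentrations. Exposure: 48 h. Format: 96-well plates. Endpoint: linear interpolation; highest concentration if not reached. At the GI50, growth is halved. At the TGI there is no net growth.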

Legend:
Assay in all cases: growth of human tumour cells (NCI), 48 h
NCI-H522 lung = system: NCI-H522 lung
OVCAR-4 ovarian = system: OVCAR-4 ovarian
HCT-116 colon = system: HCT-116 colon
SK-MEL-2 melanoma = system: SK-MEL-2 melanoma
NCI/ADR-RES ovarian = system: NCI/ADR-RES ovarian
SN12C renal = system: SN12C renal
KM12 colon = system: KM12 colon
TK-10 renal = system: TK-10 renal
786-0 renal = system: 786-0 renal
UACC-257 melanoma = system: UACC-257 melanoma

Row | Compound | TGI (NCI-H522 lung) | GI50 (OVCAR-4 ovarian) [µM] | TGI (OVCAR-4 ovarian) [µM] | GI50 (HCT-116 colon) [µM] | TGI (SK-MEL-2 melanoma) [µM] | GI50 (NCI/ADR-RES ovarian) [µM] | TGI (NCI/ADR-RES ovarian) [µM] | TGI (SN12C renal) [µM] | GI50 (KM12 colon) | TGI (KM12 colon) | TGI (TK-10 renal) [µM] | GI50 (786-0 renal) [µM] | TGI (786-0 renal) [µM] | GI50 (NCI-H522 lung) [µM] | GI50 (UACC-257 melanoma) | TGI (UACC-257 melanoma) | TGI (HCT-116 colon) [µM] | GI50 (SK-MEL-2 melanoma) [µM] | GI50 (TK-10 renal) [µM] | GI50 (SN12C renal) [µM]
1 | COc1ccc(C2c3cc4c(c(OC)c3CC3OCC(=O)C32)OCO4)cc1OC (stereo not drawn) | 0.0181 µM | 15.7 | > 100 | < 0.01 | > 100 | < 0.01 | 28.4 | > 100 | < 0.01 µM | 0.221 µM and 1.01 µM | > 100 | < 0.01 | > 100 |  |  |  |  |  |  | 
2 | O=Cc1c[nH]c2ccc(-c3csc4ccccc34)cc12 | > 100 µM | 5.12 | > 100 | 3.6 | > 100 | 4.09 | > 100 |  | 3.39 µM | > 100 µM | 16.7 | 4.26 | 41.9 | 3.23 | 13.2 µM | > 100 µM | > 100 | 2.65 | 3.13 | 
3 | CCOc1ccc(/C=N\N2C(=O)c3ccccc3C2=O)cc1 |  |  | > 100 |  | > 100 |  |  | > 100 |  | > 100 µM | > 100 |  | > 100 |  |  | > 100 µM | > 100 |  |  | 
4 | CC[C@@]1(O)C(=O)OCc2c1cc1n(c2=O)Cc2cc3c(Cl)c4c(cc3nc2-1)OCO4 | 7.58 µM and 60.5 µM |  |  | 1.1 |  | < 0.001 |  |  | 0.162 µM and 0.108 µM | > 100 µM | 10.6 |  | > 100 |  | 0.156 µM and 0.312 µM | 3.64 µM and 1.92 µM | > 100 |  |  | < 0.001
5 | C/C(=C\CCc1ccsc1)CC/C=C(\C)CCCN1CCN(CCO)CC1 | 4.71 µM | 2.7 | 14.7 | 2.71 |  | 3.48 | 13.5 | 19.2 | 2.38 µM | 5.66 µM | 7.34 | 2.27 | 5.35 | 1.91 | 4.57 µM | 16 µM | 9.26 |  | 2.5 | 4.13
6 | O=c1[nH]cc(CO)c(=O)[nH]1 | > 100 µM |  |  | > 100 | > 100 | > 100 | > 100 | > 100 | > 100 µM | > 100 µM | > 100 | > 100 | > 100 | > 100 | > 100 µM | > 100 µM | > 100 | > 100 | > 100 | > 100
7 | COC(=O)[C@H]1CC(=O)C=C2CCCC21 (stereo partly drawn) | > 100 µM |  | > 100 |  | > 100 |  |  | > 100 |  | > 100 µM | > 100 |  | > 100 |  |  | > 100 µM | > 100 |  |  | 
8 | C=C(CS(=O)(=O)c1ccccc1)C(=O)OCC | 12.9 µM |  |  |  | 35 |  |  | 31.1 |  | 32.6 µM | 31.8 |  | 31.9 |  |  | 25.9 µM | 29.9 |  |  | 
9 | CC1(C)C(=O)CCC(=O)C(C)(C)C2=CC=C(O2)C(C)(C)C(=O)CCC(=O)C(C)(C)C2=CC=C1O2 | > 100 µM |  | > 100 |  | > 100 |  |  |  |  | > 100 µM | > 100 |  | > 100 |  |  | > 100 µM | > 100 |  |  | 
10 | COc1ccc2oc(-c3cc4cc(OC)ccc4o3)cc2c1 | > 100 µM |  | > 100 |  | > 100 |  |  | > 100 |  | > 100 µM | > 100 |  | > 100 |  |  | > 100 µM |  |  |  | 
11 | Nc1nc2c(c(=O)[nH]1)N=C(COP(=O)(O)OP(=O)(O)O)CN2 | > 100 µM |  |  |  | > 100 |  | > 100 | > 100 |  | > 100 µM | > 100 |  | > 100 |  |  | > 100 µM | > 100 |  |  | 
12 | CC(C)(C)C1CCP(=O)(c2ccccc2)CC1 (stereo not drawn) | > 100 µM |  | > 100 |  | > 100 |  |  | > 100 |  | > 100 µM | > 100 |  | > 100 |  |  | > 100 µM | > 100 |  |  | 
13 | COc1cc(-c2nccc3[nH]c(-c4cccc5[nH]ccc45)nc23)cc(OC)c1OC |  | < 0.01 | 16.2 | < 0.01 | 23.5 | < 0.01 | 18.1 | 18.1 | < 0.01 µM | 13.4 µM | 24.8 | < 0.01 | 2.92 |  |  |  | 0.0202 | < 0.01 | 12.1 | < 0.01
14 | COc1cc(C2CC(=O)c3c(C)nn(-c4nc5ccccc5[nH]4)c3C2)cc(OC)c1OC (stereo not drawn) | > 100 µM |  |  | 7.39 |  | > 100 | > 100 |  | > 100 µM | > 100 µM |  | 3.34 | > 100 | 2.64 | > 100 µM | > 100 µM | > 100 |  |  | 
15 | Cc1ccc(C)c(NC(=O)C(=O)CC(=O)c2cccc3ccccc23)c1 | > 100 µM |  | > 100 |  | > 100 |  |  | > 100 |  | > 100 µM | > 100 |  | > 100 |  |  | > 100 µM | > 100 |  |  | 
16 | CCOC(=O)C/C(N)=C(\C#N)C(=O)OCC | > 100 µM |  |  |  | > 100 |  |  | > 100 |  | > 100 µM | > 100 |  | > 100 |  |  |  | > 100 |  |  | 
17 | CC1=C(C(=O)Nc2cccc(C(F)(F)F)c2)C(c2ccccc2F)C(C(=O)Nc2cccc(C(F)(F)F)c2)=C(C)N1 | 17.5 µM |  | 14 |  | 11 |  |  | 23.9 |  | 14.8 µM | 25.7 |  | 19.4 |  |  | 22.1 µM | 13.5 |  |  | 
18 | CN(C(=O)C12C3C4C1C1C2C3C41C(=O)N(C)C(C)(C)C)C(C)(C)C (stereo not drawn) | > 50 µM |  |  |  |  |  |  | > 50 |  |  |  |  | > 50 |  |  |  | > 50 |  |  | 
19 | O=S1c2ccccc2N=C(c2ccc3ccccc3c2)CC1c1ccccc1F (stereo not drawn) | > 100 µM |  | > 100 |  | > 100 |  |  | > 100 |  | > 100 µM | > 100 |  | > 100 |  |  | > 100 µM |  |  |  | 
20 | COc1ccc(/C=c2\sc3nnc(CCC(=O)Nc4cccc(C(F)(F)F)c4)n3c2=O)cc1 |  |  | > 100 |  | > 100 |  |  | > 100 |  | > 100 µM | > 100 |  | > 100 |  |  | > 100 µM | > 100 |  |  | 
21 | COC(=O)CSc1n[nH]c(-c2ccccc2)n1 | > 100 µM |  | > 100 |  | > 100 |  |  | > 100 |  | > 100 µM | > 100 |  | > 100 |  |  | > 100 µM | > 100 |  |  | 
22 | COc1cc(-c2ccccc2)c(OC)cc1CCl | > 100 µM |  | > 100 |  | > 100 |  |  | > 100 |  | > 100 µM | > 100 |  | > 100 |  |  | > 100 µM | > 100 |  |  | 
